Literature values as cited in patent US12514830B2, “Idebenone for the treatment of Acute Respiratory Distress Syndrome (ARDS) in patients diagnosed with a coronavirus infection” (BEMIDO SA, priority 2020, dated 2026).

System: patients with Duchenne muscular dystrophy (DMD)
Details: long-term treatment, for up to 6 years, real-world setting

SMILES: COC1=C(OC)C(=O)C(CCCCCCCCCCO)=C(C)C1=O [idebenone, 2-(10-hydroxydecyl)-5,6-dimethoxy-3-methyl-cyclohexa-2,5-diene-1,4-dione]
- rate of respiratory function loss: consistently reduced the rate of respiratory function loss
